Assay results taken from US20240246916A1, “7-NITRO-8-HYDROXYQUINOLINE DERIVATIVES, PREPARATION METHOD THEREFORE AND MEDICAL USE THEREOF” (Jiangsu Yahong Meditech Co., Ltd., priority 2021, published 2024).
In brackets after ≈: the same amount, converted by molar mass.

What was measured:
Format in all cases: cell-based
[1] = test system: Endothelial cell line HUVEC; assay: Inhibitory activity on cells, CellTiter-Glo viability, HUVEC; conditions: Homo sapiens, 72 hours treatment
Experimental: (§1) HUVEC (purchased from Allcells Biological Technology (Shanghai) Co., Ltd.); UM-UC-3 (ATCC); LNCaP (ATCC); RM-1 (purchased from Nanjing Cobioer Biosciences Co., Ltd.) (1) On the first day, the cells were seeded in a 96-well plate, and the previous medium was poured off. 5 mL of DPBS was added to wash the cells, and then removed by a pipette and discarded. Then, 1 mL of trypsin (0.25%) was added, and the plate was placed in a cell culture incubator at 37 °C, 5% CO2 for digestion, and taken out after about 2 to 5 minutes. New corresponding medium was added, and pipetted to resuspend the cells evenly, and the cells were then counted with an automated cell counter. Regarding HUVEC, the medium used was endothelial cell complete medium; regarding UM-UC-3, the medium used was 89 v % EMEM+10 v % fetal bovine serum+1 v % penicillin-streptomycin double anti-body; regarding LNcaP, the medium used was 89 v % RPM11640+10 v % fetal bovine serum+1 v % penicillin-streptomycin double anti-body; and regarding RM1, the medium used was 89 v % DMEM+10 v % fetal bovine serum+1 v % penicillin-streptomycin double anti-body. (2) HUVEC cells were seeded in columns 1 to 11 of a 96-well plate (Corning, Cat. No. 3610) at a density of 2000 cells per well in 100 μL of medium, and the medium free of cell was added to the wells of column 12. The other three types of cells were also seeded, wherein UM-UC-3 and RM-1 cells were seeded at a density of 3000 cells per well, and LNCap cells were seeded at a density of 5000 cells per well. Then, the plate was placed in an incubator at 37° C., 5% CO2 for 24 hours. (3) On the second day, the compounds of the present invention and the reference drug nitroxoline (obtained according to the preparation method disclosed in the prior art) were diluted in gradient (2.5 folds, started at 100 μmol) to obtain 8 dose points (there were a total of 8 columns of wells; the first column of wells had the highest concentration, the concentration decreased in turn, and the last column of wells had the lowest concentration). 10 μL of the compound diluted in gradient was added to the 100 μL of cells in column 1 to column 10 with an 8-channel pipette. 10 μL of the corresponding medium containing 0.33 v % DMSO was added to column 11 and column 12. The plate was incubated in an incubator at 37° C., 5% CO2 for 72 hours (note: column 11 was used as MAX well with cells and no compounds; and column 12 was used as MIN well with no cells and no compounds). (4) After treating with the compounds of the present invention for 72 hours, the cell viability detection reagents in the above CellTiter-Glo® assay kit were added to the 96-well plate at 50 μL per well according to the instructions. The plate was shaken on a shaker in the dark for 5 to 10 minutes, and then the cell activity was determined by a multifunctional microplate reader. Finally, the growth inhibition of the compounds of the present invention on the cells was plotted by XLFIT 5.3 software, and the IC50 values of the compounds of the present invention were calculated.

[2] = test system: Bladder cancer cell line UM-UC-3; assay: Inhibitory activity on cancer cells, CellTiter-Glo viability, UM-UC-3; conditions: Homo sapiens, UMUC3, 72 hours treatment
Experimental: as §1

[3] = test system: Prostate cancer cell line LNcaP; assay: Inhibitory activity on cancer cells, CellTiter-Glo viability, LNcaP; conditions: Homo sapiens, 72 hours treatment
Experimental: as §1

[4] = test system: Mouse prostate cancer cell line RM1; assay: Inhibitory activity on cancer cells, CellTiter-Glo viability, RM1; conditions: 72 hours treatment
Experimental: as §1

[5] = test system: Escherichia coli (carbapenem-resistant clinical isolate; ATCC25922); assay: MIC by micro broth dilution (CLSI), Escherichia coli; conditions: Escherichia coli; for MIC50 / MIC90: ATCC25922, Clinical strain; for MIC50: read-out: MIC50; for MIC90: read-out: MIC90; for MIC: Standard strain ATCC25922, read-out: MIC
Method in brief: (§2)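 Compounds were dissolved in DMSO and tested at 128 to 0.06 mg/L in cation-adjusted Mueller-Hinton broth. Overnight cultures were set to 0.5 McFarland, diluted 100-fold to a final 10^5 CFU/mL, and incubated at 35±2° C for 20 hours in air. Results were interpreted by CLSI 2019 M100 criteria.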

[6] = test system: Acinetobacter baumannii (carbapenem-resistant clinical isolates; ATCC19606); assay: MIC by micro broth dilution (CLSI), Acinetobacter baumannii; conditions: for MIC50 / MIC90: ATCC19606, Clinical strain; for MIC50 / MIC90 / MIC: Acinetobacter baumannii; for MIC50: read-out: MIC50; for MIC90: read-out: MIC90; for MIC: Standard strain ATCC19606, read-out: MIC
Method in brief: as §2

[7] = test system: Staphylococcus aureus (methicillin-resistant and sensitive clinical isolates; ATCC29213); assay: MIC by micro broth dilution (CLSI), Staphylococcus aureus; conditions: for MIC50 / MIC90: Clinical strain; for MIC50: read-out: MIC50; for MIC90: read-out: MIC90; for MIC: Standard strain ATCC29213, read-out: MIC
Method in brief: as §2

| Compound | IC50 [2] | IC50 [3] | IC50 [4] | MIC50 [5] | MIC90 [5] | MIC [5] | MIC50 [6] | MIC90 [6] | MIC [6] | MIC50 [7] | MIC90 [7] | MIC [7] | IC50 [1] | inhibitory effect against Acinetobacter baumannii compared with the reference drug nitroxoline ([6]; MIC comparison) |
| --- | --- | --- | --- | --- | --- | --- | --- | --- | --- | --- | --- | --- | --- | --- |
| CC(=O)N1CCN(c2ccnc3c(O)c([N+](=O)[O-])cc(Cl)c23)CC1 [Example 33, 4-(5-Chloro-8-hydroxy-7-nitroquinolin-4-yl)-1-acetylpiperazine] | 50.5 µM | 15 µM | 18 µM | > 128 µg/mL | > 128 µg/mL | > 128 µg/mL | > 128 µg/mL | > 128 µg/mL | > 128 µg/mL | 32 µg/mL (≈ 91.2 µM) | 32 µg/mL (≈ 91.2 µM) | 32 µg/mL (≈ 91.2 µM) | 16.9 µM | – |
| O=[N+]([O-])c1cc(F)c2c(OCC3CC3)ccnc2c1O [Example 72, 4-(Cyclopropylmethoxy)-5-fluoro-7-nitroquinolin-8-ol] | 6.28 µM | 1.89 µM | 3.03 µM | > 128 µg/mL | > 128 µg/mL | > 128 µg/mL | > 128 µg/mL | > 128 µg/mL | 64 µg/mL (≈ 230 µM) | 2 µg/mL (≈ 7.19 µM) | 4 µg/mL (≈ 14.4 µM) | 2 µg/mL (≈ 7.19 µM) | 2.65 µM | – |
| O=[N+]([O-])c1cc(Cl)c2c(OCC3CC3)ccnc2c1O [Example 53, 5-Chloro-4-(cyclopropylmethoxy)-7-nitroquinolin-8-ol] | 0.86 µM | 1.08 µM | 3.06 µM | 128 µg/mL (≈ 434 µM) | 128 µg/mL (≈ 434 µM) | 128 µg/mL (≈ 434 µM) | 128 µg/mL (≈ 434 µM) | 128 µg/mL (≈ 434 µM) | 128 µg/mL (≈ 434 µM) | 8 µg/mL (≈ 27.1 µM) | 16 µg/mL (≈ 54.3 µM) | 16 µg/mL (≈ 54.3 µM) | 0.59 µM | – |
| COc1ccnc2c(O)c([N+](=O)[O-])ccc12 [Example 21, 4-Methoxy-7-nitroquinolin-8-ol] | 4.84 µM | 6.75 µM | 6.8 µM | 8 µg/mL (≈ 36.3 µM) | 32 µg/mL (≈ 145 µM) | 8 µg/mL (≈ 36.3 µM) | 32 µg/mL (≈ 145 µM) | 64 µg/mL (≈ 291 µM) | 32 µg/mL (≈ 145 µM) | 4 µg/mL (≈ 18.2 µM) | 8 µg/mL (≈ 36.3 µM) | 8 µg/mL (≈ 36.3 µM) | 10.3 µM | – |
| O=[N+]([O-])c1cc(Cl)c2c(C3CCCCC3)ccnc2c1O [Example 64, 5-Chloro-4-cyclohexyl-7-nitroquinolin-8-ol] | 1.24 µM | 0.22 µM | 0.86 µM | > 128 µg/mL | > 128 µg/mL | > 128 µg/mL | > 128 µg/mL | > 128 µg/mL | > 128 µg/mL | 0.5 µg/mL (≈ 1.63 µM) | 1 µg/mL (≈ 3.26 µM) | 0.5 µg/mL (≈ 1.63 µM) | 0.44 µM | – |
| O=[N+]([O-])c1cc(F)c2c(N3CCC(C(F)(F)F)CC3)ccnc2c1O [Example 70, 5-Fluoro-7-nitro-4-(4-(trifluoromethyl)piperidin-1-yl)quinolin-8-ol] | 5.28 µM | 0.96 µM | 2.62 µM | > 128 µg/mL | > 128 µg/mL | > 128 µg/mL | > 128 µg/mL | > 128 µg/mL | > 128 µg/mL | 2 µg/mL (≈ 5.57 µM) | 4 µg/mL (≈ 11.1 µM) | 4 µg/mL (≈ 11.1 µM) | 2.78 µM | – |

More lines, main results first:

| IC50 [2] | IC50 [3] | IC50 [4] | MIC50 [5] | MIC90 [5] | MIC [5] | MIC50 [6] | MIC90 [6] | MIC [6] | MIC50 [7] | MIC90 [7] | MIC [7] | Compound | IC50 [1] | inhibitory effect against Acinetobacter baumannii compared with the reference drug nitroxoline ([6]; MIC comparison) |
| --- | --- | --- | --- | --- | --- | --- | --- | --- | --- | --- | --- | --- | --- | --- |
| 23.6 µM | 5.43 µM | 12.1 µM | > 128 µg/mL | > 128 µg/mL | > 128 µg/mL | > 128 µg/mL | > 128 µg/mL | > 128 µg/mL | > 128 µg/mL | > 128 µg/mL | > 128 µg/mL | CC(C)(C)C(=O)N1CCN(c2ccnc3c(O)c([N+](=O)[O-])cc(Cl)c23)CC1 [Example 45, 4-(5-Chloro-8-hydroxy-7-nitroquinolin-4-yl)-1-(2,2,2-trimethylacetyl)piperazine] | 10.1 µM | – |
| 2.38 µM | 0.97 µM | 6.07 µM | > 128 µg/mL | > 128 µg/mL | > 128 µg/mL | > 128 µg/mL | > 128 µg/mL | > 128 µg/mL | 16 µg/mL (≈ 50.5 µM) | 32 µg/mL (≈ 101 µM) | 32 µg/mL (≈ 101 µM) | O=[N+]([O-])c1cc(Cl)c2c(Oc3ccccc3)ccnc2c1O [Example 47, 5-Chloro-7-nitro-4-phenoxyquinolin-8-ol] | 1.59 µM | – |
| 17.5 µM | 5.38 µM | 5.19 µM | 8 µg/mL (≈ 33 µM) | 32 µg/mL (≈ 132 µM) | 8 µg/mL (≈ 33 µM) | 4 µg/mL (≈ 16.5 µM) | 8 µg/mL (≈ 33 µM) | 2 µg/mL (≈ 8.24 µM) | 2 µg/mL (≈ 8.24 µM) | 4 µg/mL (≈ 16.5 µM) | 4 µg/mL (≈ 16.5 µM) | O=[N+]([O-])c1cc(F)c2c(Cl)ccnc2c1O [Example 68, 4-Chloro-5-fluoro-7-nitroquinolin-8-ol] | 10 µM | comparable to that of the reference drug nitroxoline |
| 4.11 µM | 11.9 µM | 13.2 µM | 128 µg/mL (≈ 615 µM) | > 128 µg/mL | 64 µg/mL (≈ 307 µM) | > 128 µg/mL | > 128 µg/mL | > 128 µg/mL | 64 µg/mL (≈ 307 µM) | 64 µg/mL (≈ 307 µM) | 64 µg/mL (≈ 307 µM) | O=[N+]([O-])c1ccc2c(F)ccnc2c1O [Example 27, 4-Fluoro-7-nitroquinolin-8-ol] | 3.17 µM | – |
| 14 µM | 6.78 µM | 12.7 µM | 8 µg/mL (≈ 31.4 µM) | 32 µg/mL (≈ 126 µM) | 8 µg/mL (≈ 31.4 µM) | 32 µg/mL (≈ 126 µM) | 32 µg/mL (≈ 126 µM) | 32 µg/mL (≈ 126 µM) | 4 µg/mL (≈ 15.7 µM) | 8 µg/mL (≈ 31.4 µM) | 4 µg/mL (≈ 15.7 µM) | COc1ccnc2c(O)c([N+](=O)[O-])cc(Cl)c12 [Example 34, 5-Chloro-4-methoxy-7-nitroquinolin-8-ol] | 6.44 µM | – |
| > 50 µM | 40.4 µM | > 50 µM | > 128 µg/mL | > 128 µg/mL | > 128 µg/mL | > 128 µg/mL | > 128 µg/mL | > 128 µg/mL | 128 µg/mL (≈ 415 µM) | > 128 µg/mL | 128 µg/mL (≈ 415 µM) | O=[N+]([O-])c1cc(Cl)c2c(N3CCNCC3)ccnc2c1O [Example 37, 5-Chloro-7-nitro-4-(piperazin-1-yl)quinolin-8-ol] | > 50 µM | – |
| 6.8 µM | 1.53 µM | 2.51 µM | > 128 µg/mL | > 128 µg/mL | > 128 µg/mL | > 128 µg/mL | > 128 µg/mL | > 128 µg/mL | 2 µg/mL (≈ 5.5 µM) | 4 µg/mL (≈ 11 µM) | 8 µg/mL (≈ 22 µM) | CCOC(=O)C1CCN(c2ccnc3c(O)c([N+](=O)[O-])cc(F)c23)CC1 [Example 71, Ethyl 1-(5-fluoro-8-hydroxy-7-nitroquinolin-4-yl)piperidine-4-carboxylate] | 2.7 µM | – |
| 5.43 µM | 1.36 µM | 4.29 µM | > 128 µg/mL | > 128 µg/mL | > 128 µg/mL | > 128 µg/mL | > 128 µg/mL | > 128 µg/mL | 1 µg/mL (≈ 3.11 µM) | 1 µg/mL (≈ 3.11 µM) | 1 µg/mL (≈ 3.11 µM) | CC1CCCN(c2ccnc3c(O)c([N+](=O)[O-])cc(Cl)c23)C1 (stereo not drawn) [Example 66, 5-Chloro-4-(3-methylpiperidin-1-yl)-7-nitroquinolin-8-ol] | 4.54 µM | – |
